One series has as its system MV4;11 cells. The series can be described thus: Antiproliferation assay (XTT), MV4;11. The following applies: Homo sapiens, MV4-11, 168 h, read-out: Antiproliferative activity, EC50, MV4;11. On the technique in general: Tetrazolium assays rely on reduction of a dye to a coloured formazan, in cell work by metabolically active cells.
A further series relates to RPMI-8226 cells. Briefly: Antiproliferation assay (XTT), RPMI-8226. The following applies: Homo sapiens, RPMI-8226, 168 h, read-out: Antiproliferative activity, EC50, RPMI-8226.
The target of the next series is T1, AF9 YEATS (Homo sapiens, UniProt P42568).
T1 sequence (P42568 1-138 limits assumed): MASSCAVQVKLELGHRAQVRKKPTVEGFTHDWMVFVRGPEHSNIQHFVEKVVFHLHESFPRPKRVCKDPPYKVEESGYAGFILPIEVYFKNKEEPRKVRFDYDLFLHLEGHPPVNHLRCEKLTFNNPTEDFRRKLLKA
Briefly: ALPHA assay, inhibition of the AF9 YEATS-H3K27ac interaction.

The next series concerns U266 cells. The series can be described thus: Antiproliferation assay (XTT), U266. To be noted: Homo sapiens, U-266, 168 h, read-out: Antiproliferative activity, EC50, U266.
The next series has as its system Hela cells. Briefly: Antiproliferation assay, Hela. The following applies: Homo sapiens, read-out: Antiproliferative activity, EC50, Hela.
For another series, the target named is T2, ENL YEATS (Homo sapiens, UniProt Q03111).
T2 sequence (Q03111 1-138): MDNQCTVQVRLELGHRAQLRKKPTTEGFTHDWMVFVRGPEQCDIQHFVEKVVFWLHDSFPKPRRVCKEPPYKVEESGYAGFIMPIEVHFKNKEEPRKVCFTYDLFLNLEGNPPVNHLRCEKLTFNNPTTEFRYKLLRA

A further series relates to Kasumi-1 cells. The series can be described thus: Antiproliferation assay (XTT), Kasumi-1. To be noted: Homo sapiens, Kasumi 1, 168 h, read-out: Antiproliferative activity, EC50, Kasumi-1.
Another series relates to Panc1 cells. Briefly: Antiproliferation assay, Panc1. The following applies: Homo sapiens, PANC-1, 168 h, read-out: Antiproliferative activity, EC50, Panc1.
The target of series [1] is T3, ENL (Homo sapiens, UniProt Q03111).
T3 sequence (Q03111 1-559): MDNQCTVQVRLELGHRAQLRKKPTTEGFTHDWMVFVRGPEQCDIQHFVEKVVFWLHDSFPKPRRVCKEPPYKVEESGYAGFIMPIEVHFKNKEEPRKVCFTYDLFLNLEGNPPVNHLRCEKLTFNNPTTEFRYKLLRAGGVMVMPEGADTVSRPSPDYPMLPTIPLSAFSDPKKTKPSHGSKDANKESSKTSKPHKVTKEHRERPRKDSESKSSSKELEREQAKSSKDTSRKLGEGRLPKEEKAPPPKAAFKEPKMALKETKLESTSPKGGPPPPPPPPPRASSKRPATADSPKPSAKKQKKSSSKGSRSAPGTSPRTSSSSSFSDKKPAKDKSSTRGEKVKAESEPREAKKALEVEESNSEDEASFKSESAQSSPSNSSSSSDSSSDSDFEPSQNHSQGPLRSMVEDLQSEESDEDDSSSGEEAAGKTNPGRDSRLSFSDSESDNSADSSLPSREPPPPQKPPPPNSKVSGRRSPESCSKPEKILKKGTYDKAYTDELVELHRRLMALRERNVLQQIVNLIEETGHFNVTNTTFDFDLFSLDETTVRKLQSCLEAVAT
Briefly: ENL degradation in MV4;11 cells (Western blot). Further details: endogenous in cells; host or cells: MV4;11. The following applies: for Dmax: MV4-11, MV4;11 cells, read-out: Dmax (maximal degradation) of ENL; for Dmax / DC50: 24 h; for DC50: read-out: DC50 (concentration at which a protein is reduced by 50%) of ENL. The class given is cell-based. Here is the method: We next tested whether these compounds degrade ENL and AF9 in MV4;11 leukemia cells with the MLL1-AF4 oncogene. Upon compound treatment for 24 h, the cells were washed, lysed, and the lysates subjected to SDS-PAGE (sodium dodecyl sulfate–polyacrylamide gel electrophoresis) followed by detection with Western blot.
3 × 10^6 cells/well were treated with increasing concentrations of a compound for 1 day, and whole proteins were extracted. Equal amounts of proteins were separated on SDS-PAGE and transferred to PVDF membranes. The blots were probed with primary antibodies, followed by anti-rabbit IgG (Thermo Scientific) secondary antibodies. The primary antibodies against ENL (Cell signaling #14893), AF9 (Novusbio #NB100-1565), DOT1L (Cell signaling #77087), AFF4 (Abcam #ab103586), Cyclin T1 (Cell signaling #81464), H3K79me2 (Cell signaling #5427), H3K79me1 (Cell signaling #9398), Histone H3 (Cell signaling #4499), FLAG (Sigma-Aldrich #F1804), β-Actin (Cell signaling #4970) were used in this study.
For orientation: Immunoblotting shows a protein as a band on a membrane.

Another series has as its system Molm-13 cells. Briefly: Antiproliferation assay (XTT), Molm-13. To be noted: for EC50: Homo sapiens, MOLM-13, 168 h, read-out: Antiproliferative activity, EC50, Molm13.
The subject of series [2] is blood and solid tumor cells. Briefly: Antiproliferation assay, ranges given over several cell lines. The format is cell-based.
Description: (§2) Proliferation inhibition assays for suspension blood cancer cells were performed using an XTT assay kit (Biotium), following our previous methods [22]. EC50 values were determined using Prism 5 and from at least three independent experiments.
Series [3] concerns the target T3, ENL. Briefly: Rescue of compound 1-mediated ENL degradation in MV4;11 cells. The format is cell-based. Also on record: endogenous in cells; host or cells: MV4;11. The following applies: 2 h pre-treatment, then co-treatment with 1 (500 nM) for 24 h. Here is the method:
(§1) 3 × 10^6 cells/well were treated with increasing concentrations of a compound for 1 day, and whole proteins were extracted. Equal amounts of proteins were separated on SDS-PAGE and transferred to PVDF membranes. The blots were probed with primary antibodies, followed by anti-rabbit IgG (Thermo Scientific) secondary antibodies.

Series [4] has as its target T3, ENL. Briefly: ENL in nucleus and cytoplasm of MV4;11 cells (Western blot). To be noted: 4 days, compound 1 at 500 nM. Further details: endogenous in cells; host or cells: MV4;11. The format is cell-based. Here is the method:
Upon treatment of MV4;11 cells with these compounds for 4 days, cytoplasmic and nuclear proteins were separated and subjected to SDS-PAGE/Western blot.
as §1

Read-outs that look alike come from different tables or passages of the source.

Data on six compounds can be found in PMC8994274, “A proteolysis-targeting chimera molecule selectively degrades ENL and inhibits malignant gene expression and tumor growth” (Journal of Hematology & Oncology, 2022).

The EC50 is the concentration at which the effect is half-maximal. Usually IC50 stands for the concentration at which inhibition is half-maximal. As a reminder, the Dmax is the largest share of the target that was removed.

Excerpt for AF9 YEATS: (§3) AlphaScreen binding assay was developed using Perkin-Elmer AlphaScreen Histidine (Nickel Chelate) Detection Kit, following a reported protocol [39]. Data were imported into Prism (version 5.0), and IC50 values from 3 independent experiments with standard deviation were obtained by using a standard dose–response curve fitting.
Excerpt for ENL YEATS: cDNA for human ENL YEATS domain (1–138) was synthesized (by Genscript) and cloned into pET-28a vector.
as §3
Description for Kasumi-1 cells: as §2
Description for Molm-13 cells: as §2
Description for RPMI-8226 cells: as §2
Description for U266 cells: as §2

On to `C[C@H]1CCCN1Cc1nc2cc(NC(=O)c3ccc4c(cnn4CCCCCCNc4cccc5c4C(=O)N(C4CCC(=O)NC4=O)C5=O)c3)ccc2[nH]1` (stereo partly shown) [Compound 2], for which the EC50 was 1.6 ± 0.01 µM in the series on MV4;11 cells; 6 ± 0.9 µM in the series on RPMI-8226 cells; 17 µM in the series with U266 cells; more than 50 µM in the series with Hela cells (168 h); 19 ± 3.4 µM with Kasumi-1 cells; more than 50 µM in the series with Panc1 cells. For the same compound, the EC50 with Molm-13 cells was 0.49 ± 0.43 µM. For the same compound, the values for the IC50 against AF9 YEATS and against ENL YEATS were 0.317 ± 0.058 µM and 0.1 µM, respectively. Further, the Dmax on ENL [1] is approximately 68%. The DC50 at ENL [1] (MV4;11 cells) is approximately 0.05 µM.

Turning to `C[C@H]1CCCN1Cc1nc2cc(NC(=O)c3ccc4c(cnn4CCCCNc4cccc5c4C(=O)N(C4CCC(=O)NC4=O)C5=O)c3)ccc2[nH]1` (stereo partly shown) [Compound 3], the EC50 with MV4;11 cells was 1.2 ± 0.05 µM; in the series on RPMI-8226 cells it was 19 ± 3.8 µM; in the series with U266 cells it was 2.9 ± 1.8 µM; in the series with Hela cells (168 h), more than 50 µM; in the series on Kasumi-1 cells, 50 µM; in the series on Panc1 cells, more than 50 µM. In the series with Molm-13 cells, the EC50 amounted to 2.1 ± 0.03 µM. For the same compound, the results for the IC50 on AF9 YEATS and on ENL YEATS were 0.058 ± 0.02 µM and 0.61 µM, respectively. Further, on ENL [1], the Dmax was 89%. Further, at ENL [1] (MV4;11 cells), the DC50 amounted to 0.072 µM.

For the compound `C[C@H]1CCCN1Cc1nc2cc(NC(=O)c3ccc4c(cnn4CCCCNC(=O)CC45CC6CC(CC(C6)C4)C5)c3)ccc2[nH]1` [Compound 4], the EC50 is 1.4 ± 0.46 µM in the series with RPMI-8226 cells; 3.8 ± 1.2 µM with Hela cells (72 h); 1 to 3.8 µM in series [2] (non-selective activities, read-out: EC50 for blood and solid tumor cells (range over cell lines)); 0.98 ± 0.04 µM with Molm-13 cells. Besides, the “Cytotoxic action over time” value in [2] (cancerous cells) is given as “killing cancerous cells non-selectively within 3 days”. For the same compound, on ENL [1] (MV4;11 cells, even at 5 μM), the ENL reduction result is listed as “did not reduce ENL”.

For the compound `C[C@H]1CCCN1Cc1nc2cc(NC(=O)c3ccc4c(cnn4C)c3)ccc2[nH]1` [SGC-iMLLT, reference compound], the EC50 in the series on MV4;11 cells, in the series with RPMI-8226 cells, in the series on U266 cells, in the series on Hela cells (168 h), with Kasumi-1 cells and in the series with Panc1 cells was more than 50 µM throughout. Besides, the EC50 with Molm-13 cells was determined as 17 ± 1.1 µM. The compound also gave an IC50 on AF9 YEATS of 0.011 ± 0.0006 µM. In addition, the “Effect on compound 1-mediated ENL degradation” value (“Effect” for short) at ENL [3] was “dose-dependently inhibit 1-mediated ENL degradation”. Besides, the “Antiproliferative activity, EC50, Molm13” value with Molm-13 cells (7-day incubation) is listed as “weak activity”. On ENL [4], the “ENL level in the nucleus” value was “no reduction or even an increase”.

For the compound `CC(C)C[C@H](NC(=O)[C@H](Cc1ccccc1)NC(=O)c1cnccn1)B(O)O` [bortezomib], at ENL [3], the “Effect” value is on record as “dose-dependently inhibit 1-mediated ENL degradation”.

In the case of `O=C1CCC(N2C(=O)c3ccccc3C2=O)C(=O)N1` (stereo not shown) [thalidomide, reference compound], the EC50 in the series with MV4;11 cells, in the series with RPMI-8226 cells, with U266 cells, in the series on Hela cells (168 h), in the series with Kasumi-1 cells and in the series with Panc1 cells was more than 50 µM throughout. In addition, the EC50 with Molm-13 cells was more than 50 µM. The “Effect” value on ENL [3] is given as “dose-dependently inhibit 1-mediated ENL degradation”. Besides, the “ENL level in the nucleus” value on ENL [4] is “did not reduce”.
